Converted amounts (≈) assume the structure as drawn.
What was measured:
[1] = tested on: Canidae; settings: chronic, Dog Other
[2] = tested on: Oryctolagus sp.
[3] = tested on: Tagia sp.
[4] = tested on: Rattus norvegicus; settings: for LD50: acute, mortality; for NOAEL: chronic
[5] = tested on: Colinus virginianus; settings: for LD50: acute, mortality
[6] = tested on: Anas platyrhynchos; settings: for LD50: oral
[7] = tested on: Daphnia magna; settings: chronic/long-term; duration: 21 days; reproduction
[8] = tested on: Oncorhynchus mykiss

Structure (SMILES)	NOAEL ([1]; duration: 2 years)	NOAEL ([2]; reproduction developmental, body weight)	NOEC ([3]; chronic/long-term, duration: 56 days)	LD50 ([4]; oral)	NOAEL [4]	NOAEL ([4]; oral)	NOEL ([5]; short-term, oral, diet)	NOAEL ([1]; duration: 52 weeks, oral, hematological)	LD50 ([6]; acute, unspecified, clinical signs)	NOEL ([6]; not reported)	LD50 ([6]; short-term, feed, mortality)	NOAEL ([2]; developmental, development)	LC50 ([3]; acute, duration: 14 days, mortality)	NOEC [7]	LC50 ([8]; acute, duration: 96 hours, mortality)	NOEC ([8]; chronic/long-term, duration: 96 days, growth)	LD50 ([5]; oral, diet)	LD50 ([5]; oral)	NOEL ([5]; reproduction developmental)
NC(=O)c1c(Cl)cccc1Cl [2,6-Dichlorobenzamide]	4.5 mg/kg-day	30 mg/kg-day	250 mg/kg	500 mg/kg-day	5.7 mg/kg-day	13.5 mg/kg-day	876 mg/kg-day												
N#Cc1c(Cl)cccc1Cl [2,6-Dichlorobenzonitrile]				> 2000 mg/kg-day				1 mg/kg-day	> 50 mg/kg-day	35.5 mg/kg-day	> 470 mg/kg-day	45 mg/kg-day	270 mg/kg	1.2 mg/L	7.2 mg/L (≈ 41.9 µM)	0.66 mg/L	598 mg/kg-day	698 mg/kg-day	14.1 mg/kg-day

Reference: EPA's ToxValDB 9.5 (doi:10.2903/j.efsa.2010.1705)
